Here are results for 55 compounds from patent publication US20220160617A1, “COMPOSITIONS AND METHODS FOR IMPROVING SKIN HEALTH AND FOR THE TREATMENT AND PREVENTION OF DISEASES, DISORDERS AND CONDITIONS ASSOCIATED WITH PATHOGENIC MICROBES” (DermBiont, Inc., priority 2019, published 2022).

Where a SMILES comes first, the peptide text is derived from it.

The subject of one assay is E. Coli ATCC25922.
Assay: not given
To be noted: cited from earlier work.
As to `NCC[C@H](O)C(=O)N[C@@H]1C[C@H](N)[C@@H](O[C@H]2O[C@H](CN)[C@@H](O)[C@H](O)[C@H]2O)[C@H](O)[C@H]1O[C@H]1O[C@H](CO)[C@@H](O)[C@H](N)[C@H]1O` [Amikacin], the “MIC, CLSI QC ranges” value is 0.5 to 4 µg/mL.

Consider `CO/N=C(\C(=O)N[C@@H]1C(=O)N2C(C(=O)O)=C(CSc3nc(=O)c(=O)[nH]n3C)CS[C@H]12)c1csc(N)n1` [Ceftriaxone], for which the “MIC, CLSI QC ranges” value was 0.03 to 0.12 µg/mL.

The subject of the next assay is Janthinobacterium lividum strains. The assay is described as follows: Internal antibiotic resistance test (BD BBL Sensi-Disc zone of inhibition). The note with it: all 5 strains; disc content per antibiotic. The format is cell-based. The method, then:
One Janthinobacterium lividum colony of 3-day old grown in 50% BHI agar was mixed well in 1 ml of 1×PBS buffer, diluted 10× and 100×, respectively. 200 μl of diluted Janthinobacterium lividum cells were evenly plated onto R2A/BHI agar plates in triplicate in 150 mm petri dishes. Antibiotic discs (BD BBL Sensi-Disc antimicrobial susceptibility test discs) were dispensed using a Disc dispenser (BD BBL Sensi-Disc Designer Dispenser System, 12-Place). Plates were incubated for 2-3 days at room temperature and imaged at the end of incubation.
The sensitivity of Janthinobacterium lividum to antibiotics is reflected by a clear zone of inhibition of Janthinobacterium lividum cells surrounding the antibiotic discs. The zone of inhibition was measured using ImageJ and was transformed into cm for analysis.
For `O=C(O)c1cn(C2CC2)c2cc(N3CCNCC3)c(F)cc2c1=O` [Ciprofloxacin], the “sensitivity of Janthinobacterium lividum to antibiotic disc” value (“sensitivity of Janthinobacterium lividum” for short) is given as “sensitive”.

With `CC[C@H]1OC(=O)[C@H](C)[C@@H](O[C@H]2C[C@@](C)(OC)[C@@H](O)[C@H](C)O2)[C@H](C)[C@@H](O[C@@H]2O[C@H](C)C[C@H](N(C)C)[C@H]2O)[C@](C)(O)C[C@@H](C)C(=O)[C@H](C)[C@@H](O)[C@]1(C)O` [Erythromycin], the “sensitivity of Janthinobacterium lividum” value was “sensitive”.

As for `CC1(C)S[C@@H]2[C@H](NC(=O)[C@H](N)c3ccccc3)C(=O)N2[C@H]1C(=O)O` [ampicillin], the “sensitivity of Janthinobacterium lividum” value is given as “sensitive”.

`CC(=O)OCC1=C(C(=O)O)N2C(=O)[C@@H](NC(=O)Cc3cccs3)[C@H]2SC1` [cephalothin]: the “sensitivity of Janthinobacterium lividum” value is on record as “sensitive”.

As for `[H]/N=C(/N)N[C@H]1[C@H](O)[C@@H](O)[C@H](O[C@@H]2O[C@@H](C)[C@](O)(C=O)[C@H]2O[C@@H]2O[C@@H](CO)[C@H](O)[C@@H](O)[C@@H]2NC)[C@@H](N/C(N)=N\[H])[C@@H]1O` [streptomycin], the “sensitivity of Janthinobacterium lividum” value is given as “sensitive”.

Consider `CN[C@H](CC(C)C)C(=O)N[C@H]1C(=O)N[C@@H](CC(N)=O)C(=O)N[C@H]2C(=O)N[C@H]3C(=O)N[C@H](C(=O)N[C@H](C(=O)O)c4cc(O)cc(O)c4-c4cc3ccc4O)[C@H](O)c3ccc(c(Cl)c3)Oc3cc2cc(c3O[C@@H]2O[C@H](CO)[C@@H](O)[C@H](O)[C@H]2O[C@H]2C[C@](C)(N)[C@H](O)[C@H](C)O2)Oc2ccc(cc2Cl)[C@H]1O` [vancomycin], for which the “sensitivity of Janthinobacterium lividum” value is “sensitive”.

Regarding penicillin, the “sensitivity of Janthinobacterium lividum” value is “sensitive”.

For a further assay, the system named is fungal or bacterial pathogens.
Assay: not given
Conditions: not given
Type of assay: cell-based.
With `O=[N+]([O-])O` [Nitrate], the “Concentration Range of Efficacy” value is 0.1 to 1 mM.

On to `O=NO` [Nitrite], for which the “Concentration Range of Efficacy” value fell in the range of 0.1 to 1 mM.

The assay is the same for the next values; noted with them: components for enhancing function of human-derived Janthinobacterium lividum.
For the compound `CC(O)C(N)=O` (racemic) [D,L-Lactamide], the “Concentration Range of Efficacy” value was 0.1 to 1 mM.

Regarding `O=P(O)(O)OCC(O)CO` (racemic) [D,L-α-Glycerol Phosphate], the “Concentration Range of Efficacy” value is 2 to 20 mM.

On to `CC(O)CO` (stereo not shown) [1,2-Propanediol], for which the “Concentration Range of Efficacy” value fell in the range of 2 to 20 mM.

With `Nc1ncnc2c1ncn2C1CC(O)C(CO)O1` (stereo not shown) [2-Deoxy Adenosine], the “Concentration Range of Efficacy” value was 2 to 20 mM.

Take `O=CC[C@H](O)[C@H](O)CO` [2-Deoxy-DRibose]: the “Concentration Range of Efficacy” value lay in the range of 1 to 5 mM.

Turning to `O=C[C@@H](O)[C@H](O[C@@H]1O[C@H](CO)[C@H](O)[C@H](O)[C@H]1O)[C@H](O)CO` [3-0-β-D-Galactopyranosyl-D Arabinose], the “Concentration Range of Efficacy” value lay in the range of 1 to 5 mM.

For `C[C@H](N)C(=O)N[C@@H](CCC(=O)O)C(=O)O` [Ala-Glu] (H-Ala-Glu-OH), the “Concentration Range of Efficacy” value lay within 0.1 to 1 mM.

With `OC[C@@H](O)C(O)[C@H](O)CO` [D-Arabitol], the “Concentration Range of Efficacy” value lay within 1 to 5 mM.

On to `OC[C@H]1O[C@@H](O[C@H]2[C@H](O)[C@@H](O)[C@H](O)O[C@@H]2CO)[C@H](O)[C@@H](O)[C@@H]1O` [D-Cellobiose], for which the “Concentration Range of Efficacy” value was in the range of 2 to 20 mM.

Regarding `O=C(O)[C@H]1OC(O)[C@H](O)[C@@H](O)[C@@H]1O` (stereo partly drawn) [D-Glucoronic Acid], the “Concentration Range of Efficacy” value lay within 2 to 20 mM.

Take `N[C@@H](C(=O)O)[C@@H](O)[C@H](O)[C@H](O)CO` [D-Glucosaminic Acid]: the “Concentration Range of Efficacy” value lay within 2 to 20 mM.

Consider `O=P(O)(O)O[C@H]1O[C@H](CO)[C@@H](O)[C@H](O)[C@H]1O` [D-Glucose-1-Phosphate], for which the “Concentration Range of Efficacy” value lay within 2 to 20 mM.

Consider `OC[C@H]1O[C@@](CO)(O[C@H]2O[C@H](CO)[C@@H](O)[C@H](O)[C@H]2O)[C@@H](O[C@H]2O[C@H](CO)[C@@H](O)[C@H](O)[C@H]2O)[C@@H]1O` [D-Melezitose], for which the “Concentration Range of Efficacy” value was in the range of 1 to 5 mM.

Regarding `OC[C@H]1O[C@H](OCC2O[C@@H](O)[C@H](O)[C@@H](O)[C@@H]2O)[C@H](O)[C@@H](O)[C@H]1O` (stereo partly drawn) [D-Melibiose], the “Concentration Range of Efficacy” value lay in the range of 2 to 20 mM.

Consider `O=C(O)[C@@H](O)[C@H](O)C(=O)O` [D-Tartaric acid], for which the “Concentration Range of Efficacy” value lay within 1 to 5 mM.

Consider `OC[C@@H](O)[C@H](O)[C@H](O)[C@@H](O)CO` [Dulcitol], for which the “Concentration Range of Efficacy” value was 2 to 20 mM.

On to `OC[C@H](O)C(O)[C@@H](O)CO` [L-Arabitol], for which the “Concentration Range of Efficacy” value was 1 to 5 mM.

Consider `O=C(O)[C@H](O)[C@@H](O)C(=O)O` [L-Tartaric acid], for which the “Concentration Range of Efficacy” value lay in the range of 1 to 5 mM.

As for `OC[C@@H](O)[C@@H](O[C@H]1O[C@H](CO)[C@@H](O)[C@H](O)[C@H]1O)[C@H](O)[C@@H](O)CO` [Maltitol], the “Concentration Range of Efficacy” value fell in the range of 1 to 5 mM.

With `OC[C@H]1O[C@H](OC[C@H]2OC(O)(CO)[C@@H](O)[C@@H]2O)[C@H](O)[C@@H](O)[C@@H]1O` (stereo partly shown) [Palatinose], the “Concentration Range of Efficacy” value was in the range of 1 to 5 mM.

In the case of `OC[C@@]12OC[C@@H](O1)[C@@H](O)[C@@H](O)[C@@H]2O` [Sedoheptulosan], the “Concentration Range of Efficacy” value lay within 1 to 5 mM.

On to `OC[C@H]1O[C@H](OC[C@H]2O[C@H](OC[C@H]3O[C@H](O[C@]4(CO)O[C@H](CO)[C@@H](O)[C@@H]4O)[C@H](O)[C@@H](O)[C@@H]3O)[C@H](O)[C@@H](O)[C@H]2O)[C@H](O)[C@@H](O)[C@H]1O` [Stachyose], for which the “Concentration Range of Efficacy” value was 1 to 5 mM.

`O=C(CO)[C@@H](O[C@H]1O[C@H](CO)[C@@H](O)[C@H](O)[C@H]1O)[C@H](O)[C@H](O)CO` [Turanose]: the “Concentration Range of Efficacy” value was in the range of 1 to 5 mM.

With `NC(N)=O` [Urea], the “Concentration Range of Efficacy” value was 0.1 to 1 mM.

Consider `OC[C@H]1O[C@@H]2O[C@H]3[C@H](O)[C@@H](O)[C@@H](O[C@H]4[C@H](O)[C@@H](O)[C@@H](O[C@H]5[C@H](O)[C@@H](O)[C@@H](O[C@H]6[C@H](O)[C@@H](O)[C@@H](O[C@H]7[C@H](O)[C@@H](O)[C@@H](O[C@H]8[C@H](O)[C@@H](O)[C@@H](O[C@H]9[C@H](O)[C@@H](O)[C@@H](O[C@H]1[C@H](O)[C@H]2O)O[C@@H]9CO)O[C@@H]8CO)O[C@@H]7CO)O[C@@H]6CO)O[C@@H]5CO)O[C@@H]4CO)O[C@@H]3CO` [g-Cyclodextrin], for which the “Concentration Range of Efficacy” value was in the range of 1 to 5 mM.

Take `OC[C@@H](O)[C@@H](O)CO` [i-Erythritol]: the “Concentration Range of Efficacy” value was in the range of 1 to 5 mM.

As for `OC[C@H]1O[C@@H]2O[C@H]3[C@H](O)[C@@H](O)[C@@H](O[C@H]4[C@H](O)[C@@H](O)[C@@H](O[C@H]5[C@H](O)[C@@H](O)[C@@H](O[C@H]6[C@H](O)[C@@H](O)[C@@H](O[C@H]7[C@H](O)[C@@H](O)[C@@H](O[C@H]1[C@H](O)[C@H]2O)O[C@@H]7CO)O[C@@H]6CO)O[C@@H]5CO)O[C@@H]4CO)O[C@@H]3CO` [α-Cyclodextrin], the “Concentration Range of Efficacy” value fell in the range of 1 to 5 mM.

For `O=C1CCC(C(=O)O)O1` (stereo not drawn) [α-Hydroxy Glutaric Acid-g-Lactone], the “Concentration Range of Efficacy” value lay in the range of 2 to 20 mM.

With `COC1OC(CO)C(O)C(O)C1O` [α-Methyl-D-Galactoside], the “Concentration Range of Efficacy” value lay within 2 to 20 mM.

For the compound `CO[C@H]1O[C@H](CO)[C@@H](O)[C@H](O)[C@H]1O` [α-Methyl-D-Glucoside], the “Concentration Range of Efficacy” value lay within 1 to 5 mM.

As for `COC1OC(CO)C(O)C(O)C1O` [α-Methyl-D-Mannoside], the “Concentration Range of Efficacy” value was 1 to 5 mM.

Consider `OC[C@H]1O[C@@H]2O[C@H]3[C@H](O)[C@@H](O)[C@@H](O[C@H]4[C@H](O)[C@@H](O)[C@@H](O[C@H]5[C@H](O)[C@@H](O)[C@@H](O[C@H]6[C@H](O)[C@@H](O)[C@@H](O[C@H]7[C@H](O)[C@@H](O)[C@@H](O[C@H]8[C@H](O)[C@@H](O)[C@@H](O[C@H]1[C@H](O)[C@H]2O)O[C@@H]8CO)O[C@@H]7CO)O[C@@H]6CO)O[C@@H]5CO)O[C@@H]4CO)O[C@@H]3CO` [β-Cyclodextrin], for which the “Concentration Range of Efficacy” value was in the range of 1 to 5 mM.

Consider `CO[C@@H]1O[C@H](CO)[C@@H](O)[C@H](O)[C@H]1O` [β-Methyl-D-Galactoside], for which the “Concentration Range of Efficacy” value lay in the range of 1 to 5 mM.

For `CO[C@@H]1O[C@H](CO)[C@@H](O)[C@H](O)[C@H]1O` [β-Methyl-D-Glucoside], the “Concentration Range of Efficacy” value is 2 to 20 mM.

On to `CO[C@@H]1O[C@H](C(=O)O)[C@@H](O)[C@H](O)[C@H]1O` [β-Methyl-D-Glucuronic Acid], for which the “Concentration Range of Efficacy” value was in the range of 1 to 5 mM.

In the case of `COC1OCC(O)C(O)C1O` [β-Methyl-D-Xyloside], the “Concentration Range of Efficacy” value fell in the range of 1 to 5 mM.

Chondroitin Sulfate C: the “Concentration Range of Efficacy” value is 1 to 5 mM.

Glycogen: the “Concentration Range of Efficacy” value lay within 1 to 5 mM.

For the compound Inulin, the “Concentration Range of Efficacy” value lay in the range of 1 to 5 mM.

For the compound Laminarin, the “Concentration Range of Efficacy” value fell in the range of 1 to 5 mM.

On to Maltotriose, for which the “Concentration Range of Efficacy” value is 2 to 20 mM.

As for Mannan, the “Concentration Range of Efficacy” value was in the range of 1 to 5 mM.

In the case of Pectin, the “Concentration Range of Efficacy” value was in the range of 1 to 5 mM.

In the case of dextrin, the “Concentration Range of Efficacy” value is 1 to 5 mM.
